Active and inactive are the calls of the source.
Assays:
[1] = tested on: H4; test: Luminescence Cell-Based Dose Response HTS to Identify Activators of 5'UTR Stem-Loop Driven Prion Protein mRNA Translation in H4 Neuroglioblastoma Cells. [Related pubchem assays: 1829 (Project Summary), 1814 (Primary HTS)]; type: functional; settings: Homo sapiens
[2] = molecular target: Peroxisome proliferator-activated receptor gamma/Nuclear receptor coactivator 1 (Homo sapiens, UniProt P37231); type: functional;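 also: agonist potency as compounds enhance coactivator SRC-1 recruitment to PPARgamma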
[3] = molecular target: Glutathione-S-transferase (Schistosoma japonicum, UniProt Q26513); test: biotin-GST/anti-GST TR-FRET signal inhibitors, dose response, artefact control for Vif-APOBEC3G degradation inhibitor project, biochemical (AID 1117362); type: functional
[4] = molecular target: MAP kinase-activated protein kinase 2 (Homo sapiens, UniProt P49137); type: functional;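 also: measured as one member of a kinome-wide kinase panel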
[5] = molecular target: Tyrosine-protein kinase receptor UFO (Homo sapiens, UniProt P30530); type: functional
[6] = molecular target: Protein kinase C delta type (Homo sapiens, UniProt Q05655); type: functional
[7] = molecular target: Serine/threonine-protein kinase Chk2 (Homo sapiens, UniProt O96017); type: functional;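 also: CHEK2 entry within a kinome-wide screening panel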
[8] = molecular target: Proto-oncogene tyrosine-protein kinase ROS (Homo sapiens, UniProt P08922); type: functional;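 also: ROS1 tested as one member of a kinome-wide kinase panel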
[9] = molecular target: Tyrosine-protein kinase Fyn (Homo sapiens, UniProt P06241); type: functional
[10] = molecular target: T1, Sentrin-specific protease 6 (Homo sapiens, UniProt Q9GZR1); test: SAR Analysis of small molecule inhibitors of Sentrin-specific protease 6 (SENP6) using a Luminescent assay. [Related pubchem assays (depositor defined):AID2582, AID2599]; type: functional
T1 sequence (Q9GZR1 whole entry): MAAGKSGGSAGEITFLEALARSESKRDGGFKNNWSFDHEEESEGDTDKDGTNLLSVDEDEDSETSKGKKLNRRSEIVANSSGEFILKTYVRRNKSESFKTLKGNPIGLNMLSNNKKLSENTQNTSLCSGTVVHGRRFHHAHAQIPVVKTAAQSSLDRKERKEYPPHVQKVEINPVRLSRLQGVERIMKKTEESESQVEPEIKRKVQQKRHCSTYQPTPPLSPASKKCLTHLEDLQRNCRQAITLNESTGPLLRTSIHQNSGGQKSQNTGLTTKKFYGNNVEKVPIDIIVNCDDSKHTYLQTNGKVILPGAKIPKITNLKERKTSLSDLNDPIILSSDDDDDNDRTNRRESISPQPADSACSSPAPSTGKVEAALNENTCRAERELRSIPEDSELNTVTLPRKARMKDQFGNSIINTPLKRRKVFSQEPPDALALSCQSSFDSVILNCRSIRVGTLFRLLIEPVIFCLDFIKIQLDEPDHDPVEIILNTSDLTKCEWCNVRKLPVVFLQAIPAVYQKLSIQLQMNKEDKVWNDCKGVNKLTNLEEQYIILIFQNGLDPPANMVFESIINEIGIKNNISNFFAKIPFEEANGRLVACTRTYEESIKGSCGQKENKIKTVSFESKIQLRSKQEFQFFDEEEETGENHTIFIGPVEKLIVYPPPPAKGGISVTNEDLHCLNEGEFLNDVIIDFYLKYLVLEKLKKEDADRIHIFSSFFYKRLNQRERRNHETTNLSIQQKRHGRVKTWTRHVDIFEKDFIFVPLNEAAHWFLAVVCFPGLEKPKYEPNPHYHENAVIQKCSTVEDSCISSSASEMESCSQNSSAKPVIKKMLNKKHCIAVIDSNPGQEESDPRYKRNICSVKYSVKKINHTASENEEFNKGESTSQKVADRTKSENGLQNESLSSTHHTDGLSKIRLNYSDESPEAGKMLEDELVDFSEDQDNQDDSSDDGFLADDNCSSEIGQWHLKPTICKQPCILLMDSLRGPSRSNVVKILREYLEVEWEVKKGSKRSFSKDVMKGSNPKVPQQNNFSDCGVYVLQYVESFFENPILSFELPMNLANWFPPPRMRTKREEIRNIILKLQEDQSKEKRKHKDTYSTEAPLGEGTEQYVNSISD

[11] = molecular target: T2, Caspase-3 (Homo sapiens, UniProt P42574); test: SAR Analysis of small molecule inhibitors of Sentrin-specific proteases (SENPs) using a Caspase-3 Selectivity assay. [Related pubchem assays (depositor defined):AID2540, AID2599, AID434973, AID489001]; type: functional
T2 sequence (P42574 whole entry): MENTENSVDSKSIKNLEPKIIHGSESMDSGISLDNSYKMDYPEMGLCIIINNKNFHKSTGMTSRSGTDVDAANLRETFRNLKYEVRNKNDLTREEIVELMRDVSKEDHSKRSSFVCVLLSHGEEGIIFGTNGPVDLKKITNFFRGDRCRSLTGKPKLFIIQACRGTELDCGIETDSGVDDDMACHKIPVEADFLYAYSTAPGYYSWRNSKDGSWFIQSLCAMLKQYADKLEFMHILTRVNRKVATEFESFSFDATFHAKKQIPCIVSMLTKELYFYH

[12] = molecular target: Wee1-like protein kinase (Homo sapiens, UniProt P30291); test: Dose Response Cell-based Assay for Inhibitors of Wee1 Degradation. [Related pubchem assays: 1410, 1321 ]; type: functional
[13] = C. albicans growth with fluconazole, confirmation, fluorescence, retest (AID 2467); type: functional, cell-based
[14] = molecular target: Kappa-type opioid receptor (Homo sapiens, UniProt P41145); type: functional
[15] = tested on: BJ; test: cells; type: functional, cell-based; settings: Homo sapiens

Chain of Tyrosine-protein kinase receptor UFO (P30530 whole entry): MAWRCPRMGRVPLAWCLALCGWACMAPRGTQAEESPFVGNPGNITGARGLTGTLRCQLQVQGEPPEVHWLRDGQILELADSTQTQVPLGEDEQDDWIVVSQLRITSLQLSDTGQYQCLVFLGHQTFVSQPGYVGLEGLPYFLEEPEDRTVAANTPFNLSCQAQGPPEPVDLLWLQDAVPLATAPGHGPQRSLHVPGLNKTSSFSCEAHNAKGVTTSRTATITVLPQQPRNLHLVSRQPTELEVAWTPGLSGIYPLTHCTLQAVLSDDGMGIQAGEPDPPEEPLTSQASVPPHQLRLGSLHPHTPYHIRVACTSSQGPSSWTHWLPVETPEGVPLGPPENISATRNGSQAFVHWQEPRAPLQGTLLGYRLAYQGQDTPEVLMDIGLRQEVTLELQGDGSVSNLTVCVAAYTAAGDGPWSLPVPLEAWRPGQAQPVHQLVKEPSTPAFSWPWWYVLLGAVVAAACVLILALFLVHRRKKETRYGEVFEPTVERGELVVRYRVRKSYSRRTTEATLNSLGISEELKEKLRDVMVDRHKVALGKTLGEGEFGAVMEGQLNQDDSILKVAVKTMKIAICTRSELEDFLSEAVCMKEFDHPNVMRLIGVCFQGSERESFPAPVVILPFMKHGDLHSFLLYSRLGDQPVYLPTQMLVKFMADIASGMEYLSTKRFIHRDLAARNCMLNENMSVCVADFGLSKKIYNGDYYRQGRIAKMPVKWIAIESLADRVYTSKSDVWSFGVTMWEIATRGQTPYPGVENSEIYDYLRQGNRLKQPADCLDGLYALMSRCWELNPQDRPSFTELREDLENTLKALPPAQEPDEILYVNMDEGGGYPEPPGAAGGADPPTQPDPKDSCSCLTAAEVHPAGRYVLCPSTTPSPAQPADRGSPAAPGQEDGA
Chain of Serine/threonine-protein kinase Chk2 (O96017 whole entry): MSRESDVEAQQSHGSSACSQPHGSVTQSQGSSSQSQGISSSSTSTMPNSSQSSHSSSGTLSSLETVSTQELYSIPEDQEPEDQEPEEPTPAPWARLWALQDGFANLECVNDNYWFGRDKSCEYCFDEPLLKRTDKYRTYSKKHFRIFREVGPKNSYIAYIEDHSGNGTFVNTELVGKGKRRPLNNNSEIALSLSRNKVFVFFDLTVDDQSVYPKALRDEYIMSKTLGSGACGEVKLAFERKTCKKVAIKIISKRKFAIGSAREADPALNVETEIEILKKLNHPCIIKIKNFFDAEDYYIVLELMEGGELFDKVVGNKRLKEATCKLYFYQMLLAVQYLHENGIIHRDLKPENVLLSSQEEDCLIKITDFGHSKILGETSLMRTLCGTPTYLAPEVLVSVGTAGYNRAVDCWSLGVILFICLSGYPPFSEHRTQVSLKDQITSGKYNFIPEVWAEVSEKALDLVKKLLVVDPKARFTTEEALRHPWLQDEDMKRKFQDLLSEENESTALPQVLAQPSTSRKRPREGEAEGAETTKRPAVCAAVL
Chain of Glutathione-S-transferase (Q26513 whole entry): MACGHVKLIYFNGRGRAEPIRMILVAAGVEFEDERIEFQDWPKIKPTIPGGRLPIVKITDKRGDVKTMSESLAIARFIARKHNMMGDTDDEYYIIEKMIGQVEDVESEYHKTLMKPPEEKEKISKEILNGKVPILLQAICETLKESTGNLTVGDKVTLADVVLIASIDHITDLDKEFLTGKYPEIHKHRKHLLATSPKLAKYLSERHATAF
Chain of Proto-oncogene tyrosine-protein kinase ROS (P08922 whole entry): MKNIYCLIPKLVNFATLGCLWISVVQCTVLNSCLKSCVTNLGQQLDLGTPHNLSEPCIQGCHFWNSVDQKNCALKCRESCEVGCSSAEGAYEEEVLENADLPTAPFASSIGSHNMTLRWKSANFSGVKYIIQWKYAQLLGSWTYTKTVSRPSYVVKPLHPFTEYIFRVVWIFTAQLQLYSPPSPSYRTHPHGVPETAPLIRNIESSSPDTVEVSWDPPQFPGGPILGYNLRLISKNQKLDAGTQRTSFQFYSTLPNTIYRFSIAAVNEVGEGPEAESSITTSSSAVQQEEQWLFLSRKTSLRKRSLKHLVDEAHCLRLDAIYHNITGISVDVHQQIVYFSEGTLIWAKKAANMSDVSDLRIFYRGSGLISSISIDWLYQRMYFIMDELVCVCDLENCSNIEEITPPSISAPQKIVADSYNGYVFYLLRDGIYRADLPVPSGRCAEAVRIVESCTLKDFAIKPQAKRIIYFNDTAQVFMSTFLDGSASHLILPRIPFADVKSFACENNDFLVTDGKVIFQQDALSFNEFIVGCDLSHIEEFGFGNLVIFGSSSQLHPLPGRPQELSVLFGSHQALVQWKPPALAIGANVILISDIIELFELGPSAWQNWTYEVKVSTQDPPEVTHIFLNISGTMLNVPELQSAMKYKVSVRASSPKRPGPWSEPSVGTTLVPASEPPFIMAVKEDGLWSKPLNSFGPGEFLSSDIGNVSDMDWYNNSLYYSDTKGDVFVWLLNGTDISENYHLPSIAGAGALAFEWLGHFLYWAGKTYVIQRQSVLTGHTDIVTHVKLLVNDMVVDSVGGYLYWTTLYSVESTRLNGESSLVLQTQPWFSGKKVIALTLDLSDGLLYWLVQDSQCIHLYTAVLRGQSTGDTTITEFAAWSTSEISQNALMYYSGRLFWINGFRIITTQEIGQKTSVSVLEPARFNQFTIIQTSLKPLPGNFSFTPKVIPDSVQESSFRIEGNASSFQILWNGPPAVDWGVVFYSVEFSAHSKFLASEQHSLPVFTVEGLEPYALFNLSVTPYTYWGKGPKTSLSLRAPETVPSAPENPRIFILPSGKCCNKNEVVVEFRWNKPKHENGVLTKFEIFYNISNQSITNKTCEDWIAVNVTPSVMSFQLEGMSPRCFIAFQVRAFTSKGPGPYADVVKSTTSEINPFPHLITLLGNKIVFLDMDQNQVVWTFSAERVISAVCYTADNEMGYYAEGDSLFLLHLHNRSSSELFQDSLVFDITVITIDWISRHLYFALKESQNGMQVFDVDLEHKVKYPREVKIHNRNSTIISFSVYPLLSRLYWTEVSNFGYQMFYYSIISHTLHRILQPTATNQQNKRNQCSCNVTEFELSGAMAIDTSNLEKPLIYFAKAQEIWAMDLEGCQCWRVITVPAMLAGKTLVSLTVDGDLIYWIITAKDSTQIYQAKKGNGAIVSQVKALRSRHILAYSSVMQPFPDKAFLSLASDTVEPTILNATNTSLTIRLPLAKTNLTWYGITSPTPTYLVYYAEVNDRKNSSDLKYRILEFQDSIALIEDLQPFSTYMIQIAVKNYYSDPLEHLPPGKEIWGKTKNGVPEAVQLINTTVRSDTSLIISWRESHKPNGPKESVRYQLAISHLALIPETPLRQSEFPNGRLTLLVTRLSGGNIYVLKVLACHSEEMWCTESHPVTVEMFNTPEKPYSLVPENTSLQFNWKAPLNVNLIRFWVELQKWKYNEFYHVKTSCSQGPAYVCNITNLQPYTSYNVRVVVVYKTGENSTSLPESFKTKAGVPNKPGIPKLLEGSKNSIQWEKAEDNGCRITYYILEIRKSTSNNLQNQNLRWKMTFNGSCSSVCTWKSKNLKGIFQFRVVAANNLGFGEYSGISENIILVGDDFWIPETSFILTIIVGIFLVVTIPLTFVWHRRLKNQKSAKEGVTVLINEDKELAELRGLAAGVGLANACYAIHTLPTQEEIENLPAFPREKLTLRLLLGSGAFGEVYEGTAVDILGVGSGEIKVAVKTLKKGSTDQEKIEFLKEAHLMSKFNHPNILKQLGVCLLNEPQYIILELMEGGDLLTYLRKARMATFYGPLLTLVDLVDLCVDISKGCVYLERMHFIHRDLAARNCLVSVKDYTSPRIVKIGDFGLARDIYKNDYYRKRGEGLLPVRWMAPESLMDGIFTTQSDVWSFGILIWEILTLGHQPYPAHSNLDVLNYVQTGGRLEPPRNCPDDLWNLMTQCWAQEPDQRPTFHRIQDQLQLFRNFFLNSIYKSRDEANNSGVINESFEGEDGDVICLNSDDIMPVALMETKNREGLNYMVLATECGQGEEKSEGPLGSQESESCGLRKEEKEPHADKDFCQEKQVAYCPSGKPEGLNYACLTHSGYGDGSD
Chain of Protein kinase C delta type (Q05655 whole entry): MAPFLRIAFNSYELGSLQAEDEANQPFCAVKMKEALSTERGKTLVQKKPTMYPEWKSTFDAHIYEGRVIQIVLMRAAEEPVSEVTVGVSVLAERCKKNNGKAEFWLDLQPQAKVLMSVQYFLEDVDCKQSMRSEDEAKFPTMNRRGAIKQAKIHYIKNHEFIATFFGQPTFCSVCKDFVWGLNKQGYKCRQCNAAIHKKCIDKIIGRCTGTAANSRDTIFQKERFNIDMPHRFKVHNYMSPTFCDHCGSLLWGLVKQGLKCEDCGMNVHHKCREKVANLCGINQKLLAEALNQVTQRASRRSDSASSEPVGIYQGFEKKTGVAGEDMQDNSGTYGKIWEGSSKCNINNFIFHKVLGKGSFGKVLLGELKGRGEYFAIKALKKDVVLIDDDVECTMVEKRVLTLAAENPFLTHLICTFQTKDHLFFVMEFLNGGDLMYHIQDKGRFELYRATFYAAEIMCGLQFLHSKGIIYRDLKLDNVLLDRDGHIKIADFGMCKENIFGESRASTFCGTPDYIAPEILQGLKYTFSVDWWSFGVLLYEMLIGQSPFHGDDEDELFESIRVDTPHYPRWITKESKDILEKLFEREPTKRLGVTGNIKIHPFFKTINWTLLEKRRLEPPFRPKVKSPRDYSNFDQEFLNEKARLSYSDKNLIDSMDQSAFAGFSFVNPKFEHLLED
Chain of MAP kinase-activated protein kinase 2 (P49137 whole entry): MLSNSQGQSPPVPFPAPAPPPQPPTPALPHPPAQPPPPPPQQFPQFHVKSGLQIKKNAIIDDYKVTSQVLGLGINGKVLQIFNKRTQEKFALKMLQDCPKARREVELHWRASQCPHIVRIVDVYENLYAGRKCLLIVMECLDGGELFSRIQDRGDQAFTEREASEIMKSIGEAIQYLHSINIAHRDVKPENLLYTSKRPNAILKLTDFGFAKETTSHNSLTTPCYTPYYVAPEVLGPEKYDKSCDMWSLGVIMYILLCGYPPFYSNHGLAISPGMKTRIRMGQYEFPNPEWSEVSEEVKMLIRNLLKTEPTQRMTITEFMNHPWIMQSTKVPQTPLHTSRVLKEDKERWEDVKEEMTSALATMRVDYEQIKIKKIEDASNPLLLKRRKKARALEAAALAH

## CN(C)c1ncc(C2=C(Cl)C(=O)C(N3CCCC3)=C(Cl)C2=O)s1
[1]
  EC50: 34.1 µM (active)
[2]
  EC50: > 79.4 µM (not active)
[3]
  IC50: > 100 µM (active)

## O=C1NC(=S)SC1=C1C(=O)Nc2ccc(Br)cc21
[4]
  Ki: > 7.94 µM (inactive)
[5]
  Ki: > 2 µM (inactive)
[6]
  Ki: > 7.94 µM (inactive)
[7]
  Ki: 1.26 µM (active)
[8]
  Ki: > 2 µM (inactive)
[9]
  Ki: > 0.794 µM (inactive)

## Cc1cnc(NC(=O)c2sc3ccccc3c2Cl)s1
[10]
  IC50: 3.95 µM (active)
[11]
  IC50: 3.14 µM (active)

## Cc1ccc(Nc2cc(C)nn2-c2nc(C)cc(O)n2)cc1
[12]
  EC50: > 1.84 µM (active)
[13]
  EC50: < 0.03 µM (active)
[14]
  IC50: > 32 µM
[15]
  EC50: 14 µM (active)

Source: ChEMBL document CHEMBL1201862, “PubChem BioAssay data set” (2004)
